# Paper PMC11061149, “Protein mimetic 2D FAST rescues alpha synuclein aggregation mediated early and post disease Parkinson’s phenotypes” (Nature Communications, 2024)
# “And” between values parts separate entries of the source, which are not always exact repeats. Identical values can stand only once.
# Assays:
# UA196 worms = test: ROS level in post-disease onset PD model of UA196 worms; assay type: in vivo, C. elegans
# Procedure: The UA196 worms were bleached, and the eggs were incubated on PLATE 1. On day two, the UA196 worms were transferred (using M9 buffer) on PLATE 2 (without ligand). On day five, 100 UA196 worms were used to determine the ROS level (as described earlier) prior to the treatment with ligands on day five. In tandem, ~200 worms were transferred to PLATE 3 (with ligand) using M9 buffer (10-20 µL) and the plate was incubated at 20 °C in the incubator. On day 8, 100 UA196 worms from PLATE 2 (without ligand) and PLATE 3 (with ligand) were used to determine the ROS level (as described earlier). For each condition, three biological replicates were performed, and 3 technical replicates were used for each biological replicate. […] (n = 3 independent experiments and each n consisted of 3 technical replicates).
# [1] = molecular target: T1, α-Synuclein (αS) aggregation (Homo sapiens, UniProt P37840); test: Thioflavin T (ThT) dye-based αS aggregation assay (de novo); assay type: biochemical
# T1 construct: made in house; host or cells: E. coli BL21(DE3)
# Procedure, shortened: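 100 μM αS incubated ±ligand at equimolar ratio, 37 °C with shaking at 1300 rpm; aliquots diluted into PBS containing 50 μM ThT. Fluorescence read at λex 450/λem 490 nm over time, single-point value taken at 96 h; mean of triplicates.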
smiles,measurement,setting,value
Cc1ccc(NC(=O)c2ccc(NC(=O)c3ccc([N+](=O)[O-])c(NCCc4c[nH]c5ccccc45)n3)c(NCC3CCCCC3)n2)c(OCC(=O)O)n1 [NS132],"ROS level in UA196 worms, post-disease model, in words","UA196 worms; 50 μM ligand on day five, ROS on day eight",very effective in decreasing the ROS level
same,"ROS level (dye fluorescence), Average","UA196 worms; UA196+NS132, Day 5 (same value as UA196 control)",1262.3
same,"ROS level (dye fluorescence), Average","UA196 worms; UA196+NS132, Day 8",733.721
same,"ThT fluorescence intensity, Average","[1]; 100 µM αS + equimolar ligand, aggregation profile Fig. 2n/5c, time 0 hr",108
same,"ThT fluorescence intensity, Average","[1]; 100 µM αS + equimolar ligand, comparison with reported ligands Fig. 5f, time 0 hr",49.3333
same,"effect on αS aggregation (ThT assay), in words","[1]; 100 µM αS, equimolar, four days",completely suppressed
same,"ThT intensity relative to Synuclein alone (=1), Average","[1]; 100 µM αS, four days, equimolar",0.008333
same,"ThT intensity relative to Synuclein alone (=1), Trial 1-3","[1]; 100 µM αS, four days, equimolar, individual trials",0.009745 and 0.008898 and 0.006356
same,"ThT fluorescence intensity, Average","[1]; Fig. 2n/5c profile, time 6 hr",108
same,"ThT fluorescence intensity, Average","[1]; Fig. 2n/5c profile, time 12 hr",44.6667
same,"ThT fluorescence intensity, Average","[1]; Fig. 2n/5c profile, time 24 hr",48.6667
same,"ThT fluorescence intensity, Average","[1]; Fig. 2n/5c profile, time 35 hr",41
same,"ThT fluorescence intensity, Average","[1]; Fig. 2n/5c profile, time 48 hr",76.6667
same,"ThT fluorescence intensity, Average","[1]; Fig. 2n/5c profile, time 58 hr",49
same,"ThT fluorescence intensity, Average","[1]; Fig. 2n/5c profile, time 77 hr",35
same,"ThT fluorescence intensity, Average","[1]; Fig. 2n/5c profile, time 105 hr",35.3333
same,"ThT fluorescence intensity, Average","[1]; Fig. 5f profile, time 6 hr",35.6667
same,"ThT fluorescence intensity, Average","[1]; Fig. 5f profile, time 12 hr",44.3333
same,"ThT fluorescence intensity, Average","[1]; Fig. 5f profile, time 24 hr",46
same,"ThT fluorescence intensity, Average","[1]; Fig. 5f profile, time 36 hr",47.6667
same,"ThT fluorescence intensity, Average","[1]; Fig. 5f profile, time 48 hr",43.6667
same,"ThT fluorescence intensity, Average","[1]; Fig. 5f profile, time 72 hr",43.6667
same,"ThT fluorescence intensity, Average","[1]; Fig. 5f profile, time 96 hr",44.6667
same,"Relative ThT intensity of αS aggregation, Average","[1]; sheet S7A, Synuclein alone about 1",0.008333
same,Relative ThT intensity of αS aggregation,"[1]; sheet S7A, Synuclein alone about 1, individual trials",0.009745 and 0.008898 and 0.006356
same,"Relative ThT intensity of αS aggregation, Average","[1]; sheet S8B, Synuclein alone = 1",0.04997
same,Relative ThT intensity of αS aggregation,"[1]; sheet S8B, Synuclein alone about 1, individual trials",0.0476 and 0.0492 and 0.0531
same,"ThT intensity of Synuclein with ligand, Average","[1]; sheet S17, average of 3 trials, Synuclein alone 206, ThT control 37",50.3667
same,"ThT intensity of Synuclein with ligand, Trial 1-3","[1]; sheet S17, individual trials, Synuclein alone average 206, ThT control average 37",48.4 and 53.2 and 49.5
same,"inhibition of αS aggregation, in words",[1]; substoichiometric ratio αS:NS132 1:0.2,wholly inhibit
same,"ThT intensity (raw), individual trials","[1]; αS aggregation after four days, NS132 derivatives equimolar (Fig. 2r)",1344 and 1402 and 1510
